Reference: patent US4267176A, “Amino or acylamino-substituted pyrimidinyl cephalosporanic acid derivatives and pharmaceutical compositions thereof” (Fujisawa Pharmaceutical Co., Ltd., priority 1977, dated 1981)
Values after ≈ are worked out from the molar mass of the structure shown.

Tests used:
[1] = tested on: Proteus vulgaris IAM 1025; experiment: In vitro antibacterial activity, two-fold agar-plate dilution method (MIC), Proteus vulgaris; type: cell-based; details: IAM1025, heart infusion agar, 37° C. for 20 hours, approximately 10^6 cells per ml, read-out: MIC (minimal inhibitory concentration)
Method: (§1) In vitro antibacterial activity was determined by the two-fold agar-plate dilution method as described below. One loopful of an overnight culture of each test strain in Trypticase-soy broth (approximately 10^6 […] cells per ml.) was streaked on heart infusion agar (HI-agar) containing graded concentrations of antibiotics, and the minimal inhibitory concentration (MIC) was expressed in […] of μg/ml after incubation at 37° C. for 20 hours.

[2] = tested on: Pseudomonas aeruginosa NCTC-10490; experiment: In vitro antibacterial activity, two-fold agar-plate dilution method (MIC), Pseudomonas aeruginosa; type: cell-based; details: NCTC10490, heart infusion agar, 37° C. for 20 hours, approximately 10^6 cells per ml, read-out: MIC (minimal inhibitory concentration)
Method: as §1

SMILES | MIC [1] [µg/mL] | MIC [2] [µg/mL]
CON=C(C(=O)NC1C(=O)N2C(C(=O)O)=C(CSc3nnnn3C)CS[C@H]12)c1ccnc(N)n1 (stereo partly shown) [compound 10, 7-[2-(2-aminopyrimidin-4-yl)-2-methoxyiminoacetamido]-3-(1-methyl-1H-tetrazol-5-yl)thiomethyl-3-cephem-4-carboxylic acid] | 0.2 (≈ 0.395 µM) | 6.25 (≈ 12.3 µM)
Nc1cccc(/C(=N/OCC(F)(F)F)C(=O)NC2C(=O)N3C(C(=O)O)=C(CSc4nnnn4CC(=O)O)CSC23)n1 (stereo not drawn) [compound 5, 7-[2-(6-Aminopyridin-2-yl)-2-(2,2,2-trifluoroethoxyimino)acetamido]-3-[(1-carboxymethyl-1H-tetrazol-5-yl)thiomethyl]-3-cephem-4-carboxylic acid (syn isomer)] | 0.025 (≈ 0.0405 µM) | < 1.56
CCO/N=C(\C(=O)NC1C(=O)N2C(C(=O)O)=CC(C)SC12)c1cccc(N)n1 (stereo not drawn) [compound 14, 7-[2-(6-aminopyridin-2-yl)-2-ethoxyiminoacetamido]-2-methyl-3-cephem-4-carboxylic acid (syn isomer)] | 0.05 (≈ 0.123 µM) | < 1.56
C#CCO/N=C(\C(=O)NC1C(=O)N2C(C(=O)O)=C(CSc3nnnn3C)CSC12)c1cccc(N)n1 (stereo not drawn) [compound 13, 7-[2-(6-aminopyridin-2-yl)-2-propargyloxyiminoacetamido]-3-(1-methyl-1H-tetrazol-5-ylthiomethyl)-3-cephem-4-carboxylic acid (syn isomer)] | 0.05 (≈ 0.0944 µM) | ≤ 1.56
C=CCO/N=C(\C(=O)NC1C(=O)N2C(C(=O)O)=C(CSc3nncs3)CSC12)c1nccc(N)n1 (stereo not drawn) [compound 3, 7-[2-Allyloxyimino-2-(4-aminopyrimidin-2-yl)acetamido]-3-(1,3,4-thiadiazol-2-ylthiomethyl)-3-cephem-4-carboxylic acid (syn isomer)] | 0.05 (≈ 0.0935 µM) | < 1.56
CO/N=C(\C(=O)NC1C(=O)N2C(C(=O)O)=C(COC(N)=O)CSC12)c1cccc(N)n1 (stereo not drawn) [compound 8, 7-[2-(6-aminopyridin-2-yl)-2-methoxyiminoacetamido]-3-carbamoyloxymethyl-3-cephem-4-carboxylic acid (syn isomer)] | 0.05 (≈ 0.111 µM) | 3.13 (≈ 6.95 µM)
CCCO/N=C(\C(=O)NC1C(=O)N2C(C(=O)O)=C(CSc3nncs3)CSC12)c1nccc(N)n1 (stereo not drawn) [compound 4, 7-[2-(4-Aminopyrimidin-2-yl)-2-propoxyiminoacetamido]-3-(1,3,4-thiadiazol-2-ylthiomethyl)-3-cephem-4-carboxylic acid (syn isomer)] | < 0.025 | < 1.56
C=CCO/N=C(\C(=O)NC1C(=O)N2C(C(=O)O)=C(CSc3nnnn3C)CSC12)c1cccc(N)n1 (stereo not drawn) [compound 12, 7-[2-allyloxyimino-2-(6-aminopyridin-2-yl)acetamido]-3-(1-methyl-1H-tetrazol-5-ylthiomethyl)-3-cephem-4-carboxylic acid (syn isomer)] | 0.05 (≈ 0.0941 µM) | ≤ 1.56

Next, values leading:

MIC [1] [µg/mL] | MIC [2] [µg/mL] | SMILES
< 0.025 | 6.25 (≈ 11.7 µM) | C=CCn1nnnc1SCC1=C(C(=O)O)N2C(=O)C(NC(=O)/C(=N\OC)c3nccc(N)n3)C2SC1 (stereo not drawn) [compound 2, 7-[2-(4-Aminopyrimidin-2-yl)-2-methoxyiminoacetamido]-3-[(1-allyl-1H-tetrazol-5-yl)thiomethyl]-3-cephem-4-carboxylic acid (syn isomer)]
≤ 0.025 | ≤ 1.56 | CO/N=C(\C(=O)NC1C(=O)N2C(C(=O)O)=C(COC(C)=O)CSC12)c1cccc(N)n1 (stereo not drawn) [compound 9, 7-[2-(6-aminopyridin-2-yl)-2-methoxyiminoacetamido]cephalosporanic acid (syn isomer)]
< 0.025 | < 1.56 | CCO/N=C(\C(=O)NC1C(=O)N2C(C(=O)O)=C(CSc3nncs3)CSC12)c1nccc(N)n1 (stereo not drawn) [compound 1, 7-[2-(4-Aminopyrimidin-2-yl)-2-ethoxyiminoacetamido]-3-(1,3,4-thiadiazol-2-ylthiomethyl)-3-cephem-4-carboxylic acid (syn isomer)]
≤ 0.025 | < 1.56 | CO/N=C(\C(=O)NC1C(=O)N2C(C(=O)O)=C(CSc3nnnn3C)CSC12)c1nccc(N)n1 (stereo not drawn) [compound 11, 7-[2-(4-aminopyrimidin-2-yl)-2-methoxyiminoacetamido]-3-(1-methyl-1H-tetrazol-5-ylthiomethyl)-3-cephem-4-carboxylic acid (syn isomer)]
≤ 0.025 | ≤ 1.56 | CO/N=C(\C(=O)NC1C(=O)N2C(C(=O)O)=C(CSc3nnnn3C)CSC12)c1cccc(N)n1 (stereo not drawn) [compound 6, 7-[2-(6-aminopyridin-2-yl)-2-methoxyiminoacetamido]-3-(1-methyl-1H-tetrazol-5-yl)thiomethyl-3-cephem-4-carboxylic acid (syn isomer)]
≤ 0.025 | 6.25 (≈ 16.6 µM) | CON=C(C(=O)NC1C(=O)N2C(C(=O)O)=CCS[C@H]12)c1cccc(N)n1 (stereo partly shown) [compound 7, 7-[2-(6-aminopyridin-2-yl)-2-methoxyiminoacetamido]-3-cephem-4-carboxylic acid]
